ChEMBL document CHEMBL1275478, “Enantioselective and nonlinear intestinal absorption of eflornithine in the rat” (Antimicrob Agents Chemother, 2008)

How the values were obtained:
Assay type in all cases: ADME, organism-based
[1] = Oral bioavailability in Sprague-Dawley rat at 3000 mg/kg, po; conditions: in vivo
[2] = Oral bioavailability in Sprague-Dawley rat at 750 mg/kg, po; conditions: in vivo, pooled result: one value given for 3 cell lines, strains, targets or settings
[3] = system: Rattus norvegicus; assay: Intercompartmental clearance in Sprague-Dawley rat assessed as D-eflornithine at 375 mg/kg, iv administered as single infusion; parameters: dose 375 mg/kg, route intravenous; conditions: in vivo
[4] = system: Rattus norvegicus; assay: Intercompartmental clearance in Sprague-Dawley rat assessed as L-eflornithine at 375 mg/kg, iv administered as single infusion; parameters: dose 375 mg/kg, route intravenous; conditions: in vivo
[5] = system: Rattus norvegicus; assay: Intercompartmental clearance in Sprague-Dawley rat assessed as D-eflornithine at 1000 mg/kg, iv administered as 3 mins short-term infusion; parameters: dose 1000 mg/kg, route intravenous; conditions: in vivo, 0.05 h
[6] = system: Rattus norvegicus; assay: Intercompartmental clearance in Sprague-Dawley rat assessed as L-eflornithine at 1000 mg/kg, iv administered as 3 mins short-term infusion; parameters: dose 1000 mg/kg, route intravenous; conditions: in vivo, 0.05 h
[7] = system: Rattus norvegicus; assay: Mean transit time in Sprague-Dawley rat assessed as D-eflornithine at 750 to 3000 mg/kg, po; parameters: dose 750-3000 mg/kg, route oral; conditions: in vivo
[8] = system: Rattus norvegicus; assay: Mean transit time in Sprague-Dawley rat assessed as L-eflornithine at 750 to 3000 mg/kg, po; parameters: dose 750-3000 mg/kg, route oral; conditions: in vivo
[9] = Central volume of distribution in Sprague-Dawley rat at 1000 mg/kg, iv administered as 3 mins short-term infusion; parameters: dose 1000 mg/kg, route intravenous; conditions: in vivo
[10] = Clearance in Sprague-Dawley rat at 375 mg/kg, iv administered as single infusion; parameters: dose 375 mg/kg, route intravenous; conditions: in vivo
[11] = Central volume of distribution in Sprague-Dawley rat at 375 mg/kg, iv administered as single infusion; parameters: dose 375 mg/kg, route intravenous; conditions: in vivo
[12] = Clearance in Sprague-Dawley rat at 1000 mg/kg, iv administered as 3 mins short-term infusion; parameters: dose 1000 mg/kg, route intravenous; conditions: in vivo

## NCCCC(N)(C(=O)O)C(F)F (racemic) [EFLORNITHINE]
[1]
  bioavailability: 82.7%
[2]
  bioavailability: 62.3%
[3]
  CL: 1.2 mL/min/kg
[4]
  CL: 1.2 mL/min/kg
[5]
  CL: 1.2 mL/min/kg
[6]
  CL: 1.2 mL/min/kg
[7]
  MTT: 88 min
[8]
  MTT: 88 min

## NCCC[C@@](N)(C(=O)O)C(F)F [D-EFLORNITHINE]
[9]
  Vd: 0.401 L/kg
[10]
  clearance: 12.6 mL/min/kg

## NCCC[C@](N)(C(=O)O)C(F)F [EFLORNITHINE, (S)-]
[9]
  Vd: 0.404 L/kg
[11]
  Vd: 0.404 L/kg
[10]
  clearance: 14.5 mL/min/kg
[1]
  bioavailability: 47%
[2]
  bioavailability: 41%
[12]
  clearance: 14.5 mL/min/kg
